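Step 1: Grow cells in 96-well plates. Step 2: Expose to compound for 48 hours at 5 concentrations. Step 3: Interpolate endpoints linearly; if unreached, use highest concentration. At the GI50, growth is halved. TGI is the concentration that stops growth completely.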
Tests used:
Test in all cases: NCI tumour cell line growth inhibition, 48 h
786-0 renal = test system: 786-0 renal
A498 renal = test system: A498 renal
A549 NSCLC = test system: A549 NSCLC
ACHN renal = test system: ACHN renal
CAKI-1 renal = test system: CAKI-1 renal
COLO 205 colon = test system: COLO 205 colon
DU-145 prostate = test system: DU-145 prostate
EKVX NSCLC = test system: EKVX NSCLC
HCC-2998 colon = test system: HCC-2998 colon
HCT-116 colon = test system: HCT-116 colon
HCT-15 colon = test system: HCT-15 colon
HL-60(TB) leukemia = test system: HL-60(TB) leukemia
HOP-62 NSCLC = test system: HOP-62 NSCLC
HOP-92 NSCLC = test system: HOP-92 NSCLC
HS 578T breast = test system: HS 578T breast
HT29 colon = test system: HT29 colon
K-562 leukemia = test system: K-562 leukemia
KM12 colon = test system: KM12 colon
LOX IMVI melanoma = test system: LOX IMVI melanoma
M14 melanoma = test system: M14 melanoma
MCF7 breast = test system: MCF7 breast
MDA-MB-231 breast = test system: MDA-MB-231 breast
MDA-MB-435 = test system: MDA-MB-435
MDA-N = test system: MDA-N
MOLT-4 leukemia = test system: MOLT-4 leukemia
NCI-H226 lung = test system: NCI-H226 lung
NCI-H23 lung = test system: NCI-H23 lung
NCI-H460 lung = test system: NCI-H460 lung
NCI/ADR-RES ovarian = test system: NCI/ADR-RES ovarian
OVCAR-3 ovarian = test system: OVCAR-3 ovarian
OVCAR-4 ovarian = test system: OVCAR-4 ovarian
OVCAR-5 ovarian = test system: OVCAR-5 ovarian
OVCAR-8 ovarian = test system: OVCAR-8 ovarian
PC-3 prostate = test system: PC-3 prostate
RPMI-8226 leukemia = test system: RPMI-8226 leukemia
RXF 393 renal = test system: RXF 393 renal
SF-268 CNS = test system: SF-268 CNS
SF-295 CNS = test system: SF-295 CNS
SK-MEL-2 melanoma = test system: SK-MEL-2 melanoma
SK-MEL-28 melanoma = test system: SK-MEL-28 melanoma
SK-MEL-5 melanoma = test system: SK-MEL-5 melanoma
SK-OV-3 ovarian = test system: SK-OV-3 ovarian
SN12C renal = test system: SN12C renal
SNB-19 CNS = test system: SNB-19 CNS
SNB-75 CNS = test system: SNB-75 CNS
SR leukemia = test system: SR leukemia
SW-620 colon = test system: SW-620 colon
T-47D breast = test system: T-47D breast
TK-10 renal = test system: TK-10 renal
U251 CNS = test system: U251 CNS
UACC-257 melanoma = test system: UACC-257 melanoma
UACC-62 melanoma = test system: UACC-62 melanoma
UO-31 renal = test system: UO-31 renal
BT-549 breast = test system: BT-549 breast
CCRF-CEM leukemia = test system: CCRF-CEM leukemia
IGROV1 ovarian = test system: IGROV1 ovarian
MALME-3M melanoma = test system: MALME-3M melanoma
NCI-H522 lung = test system: NCI-H522 lung
SF-539 CNS = test system: SF-539 CNS

SMILES: O=C(C1=CCC2(CC1)OCCO2)N(Cc1ccccc1)c1ccccc1I
- TGI (786-0 renal): 43 µM
- TGI (A498 renal): 51.9 µM
- TGI (A549 NSCLC): > 100 µM
- TGI (ACHN renal): 43.2 µM
- TGI (CAKI-1 renal): 88.3 µM
- TGI (COLO 205 colon): 36.5 µM
- TGI (DU-145 prostate): 63.6 µM
- TGI (EKVX NSCLC): 31.5 µM
- TGI (HCC-2998 colon): 32.8 µM
- TGI (HCT-116 colon): 37.7 µM
- TGI (HCT-15 colon): 57.2 µM
- TGI (HL-60(TB) leukemia): > 100 µM
- TGI (HOP-62 NSCLC): 43.3 µM
- TGI (HOP-92 NSCLC): 43.2 µM
- TGI (HS 578T breast): 22.7 µM
- TGI (HT29 colon): 36 µM
- TGI (K-562 leukemia): > 100 µM
- TGI (KM12 colon): 29.5 µM
- TGI (LOX IMVI melanoma): 56.8 µM
- TGI (M14 melanoma): 33.5 µM
- TGI (MCF7 breast): 72.4 µM
- TGI (MDA-MB-231 breast): 68.1 µM
- TGI (MDA-MB-435): 50.7 µM
- TGI (MDA-N): 96.4 µM
- TGI (MOLT-4 leukemia): > 100 µM
- TGI (NCI-H226 lung): 34.8 µM
- TGI (NCI-H23 lung): 44.1 µM
- TGI (NCI-H460 lung): 46.4 µM
- TGI (NCI/ADR-RES ovarian): 32.8 µM
- TGI (OVCAR-3 ovarian): 38.6 µM
- TGI (OVCAR-4 ovarian): 34.4 µM
- TGI (OVCAR-5 ovarian): 36.7 µM
- TGI (OVCAR-8 ovarian): 30.1 µM
- TGI (PC-3 prostate): 59.9 µM
- TGI (RPMI-8226 leukemia): 97.6 µM
- TGI (RXF 393 renal): 77.6 µM
- TGI (SF-268 CNS): 27.9 µM
- TGI (SF-295 CNS): 51.8 µM
- TGI (SK-MEL-2 melanoma): 38.7 µM
- TGI (SK-MEL-28 melanoma): 46.2 µM
- TGI (SK-MEL-5 melanoma): 30.1 µM
- TGI (SK-OV-3 ovarian): 88.2 µM
- TGI (SN12C renal): 56 µM
- TGI (SNB-19 CNS): 37.3 µM
- TGI (SNB-75 CNS): 37 µM
- TGI (SR leukemia): > 100 µM
- TGI (SW-620 colon): > 100 µM
- TGI (T-47D breast): 59.7 µM
- TGI (TK-10 renal): 44.5 µM
- TGI (U251 CNS): 48.1 µM
- TGI (UACC-257 melanoma): 46.7 µM
- TGI (UACC-62 melanoma): 31.1 µM
- TGI (UO-31 renal): 33.3 µM

SMILES: COc1ccc(-n2nc(C)c3c(Nc4ccc(NC(=O)Nc5cc(C(F)(F)F)ccc5F)cc4)ncnc32)cc1
- GI50 (786-0 renal): 2.04 µM
- TGI (786-0 renal): 5.2 µM
- GI50 (A498 renal): 2.82 µM
- TGI (A498 renal): 7.18 µM
- GI50 (A549 NSCLC): 2.35 µM
- TGI (A549 NSCLC): 5.86 µM
- GI50 (ACHN renal): 2.92 µM
- TGI (ACHN renal): 42.9 µM
- GI50 (BT-549 breast): 2.49 µM
- TGI (BT-549 breast): 7.67 µM
- GI50 (CAKI-1 renal): 2.01 µM
- TGI (CAKI-1 renal): 6.87 µM
- GI50 (CCRF-CEM leukemia): 2.94 µM
- TGI (CCRF-CEM leukemia): > 100 µM
- GI50 (COLO 205 colon): 1.98 µM
- TGI (COLO 205 colon): 4.93 µM
- GI50 (DU-145 prostate): 3.65 µM
- TGI (DU-145 prostate): > 100 µM
- GI50 (EKVX NSCLC): 2.25 µM
- TGI (EKVX NSCLC): 5.88 µM
- GI50 (HCC-2998 colon): 3.19 µM
- TGI (HCC-2998 colon): 15.5 µM
- GI50 (HCT-116 colon): 2.81 µM
- TGI (HCT-116 colon): 10.3 µM
- GI50 (HCT-15 colon): 2.3 µM
- TGI (HCT-15 colon): 6.31 µM
- GI50 (HL-60(TB) leukemia): 2.55 µM
- TGI (HL-60(TB) leukemia): 6.67 µM
- GI50 (HOP-62 NSCLC): 2.97 µM
- TGI (HOP-62 NSCLC): 11.4 µM
- GI50 (HOP-92 NSCLC): 2.23 µM
- TGI (HOP-92 NSCLC): 6.26 µM
- GI50 (HS 578T breast): 2.33 µM
- TGI (HS 578T breast): 7.11 µM
- GI50 (HT29 colon): 2.31 µM
- TGI (HT29 colon): 5.8 µM
- GI50 (IGROV1 ovarian): 2.98 µM
- TGI (IGROV1 ovarian): 11.1 µM
- GI50 (K-562 leukemia): 2.99 µM
- TGI (K-562 leukemia): > 100 µM
- GI50 (KM12 colon): 2.55 µM
- TGI (KM12 colon): 7.32 µM
- GI50 (LOX IMVI melanoma): 1.67 µM
- TGI (LOX IMVI melanoma): 3.1 µM
- GI50 (M14 melanoma): 1.9 µM
- TGI (M14 melanoma): 4.64 µM
- GI50 (MALME-3M melanoma): 1.76 µM
- TGI (MALME-3M melanoma): 4.06 µM
- GI50 (MCF7 breast): 2.69 µM
- TGI (MCF7 breast): 14.7 µM
- GI50 (MDA-MB-231 breast): 1.61 µM
- TGI (MDA-MB-231 breast): 3.55 µM
- GI50 (MDA-MB-435): 2.44 µM
- TGI (MDA-MB-435): 6.51 µM
- GI50 (MOLT-4 leukemia): 2.69 µM
- TGI (MOLT-4 leukemia): 12.1 µM
- GI50 (NCI-H226 lung): 2.34 µM
- TGI (NCI-H226 lung): 7.23 µM
- GI50 (NCI-H23 lung): 2.22 µM
- TGI (NCI-H23 lung): 6.71 µM
- GI50 (NCI-H460 lung): 2.89 µM
- TGI (NCI-H460 lung): 8.7 µM
- GI50 (NCI-H522 lung): 1.94 µM
- TGI (NCI-H522 lung): 4.95 µM
- GI50 (NCI/ADR-RES ovarian): 2.93 µM
- TGI (NCI/ADR-RES ovarian): 11.9 µM
- GI50 (OVCAR-3 ovarian): 2.4 µM
- TGI (OVCAR-3 ovarian): 6.84 µM
- GI50 (OVCAR-4 ovarian): 2.83 µM
- TGI (OVCAR-4 ovarian): > 100 µM
- GI50 (OVCAR-5 ovarian): 2.87 µM
- TGI (OVCAR-5 ovarian): 10.6 µM
- GI50 (OVCAR-8 ovarian): 2.36 µM
- TGI (OVCAR-8 ovarian): 6.16 µM
- GI50 (PC-3 prostate): 2.13 µM
- TGI (PC-3 prostate): 6.85 µM
- GI50 (RPMI-8226 leukemia): 2.26 µM
- TGI (RPMI-8226 leukemia): 5.88 µM
- GI50 (RXF 393 renal): 1.09 µM
- TGI (RXF 393 renal): 2.82 µM
- GI50 (SF-268 CNS): 3.24 µM
- TGI (SF-268 CNS): > 100 µM
- GI50 (SF-295 CNS): 2.06 µM
- TGI (SF-295 CNS): 4.43 µM
- GI50 (SF-539 CNS): 1.94 µM
- TGI (SF-539 CNS): 4.87 µM
- GI50 (SK-MEL-2 melanoma): 2.35 µM
- TGI (SK-MEL-2 melanoma): 4.91 µM
- GI50 (SK-MEL-28 melanoma): 2.51 µM
- TGI (SK-MEL-28 melanoma): 6.29 µM
- GI50 (SK-MEL-5 melanoma): 1.91 µM
- TGI (SK-MEL-5 melanoma): 3.73 µM
- GI50 (SK-OV-3 ovarian): 3.48 µM
- TGI (SK-OV-3 ovarian): 82.3 µM
- GI50 (SN12C renal): 2.96 µM
- TGI (SN12C renal): 42.9 µM
- GI50 (SNB-19 CNS): 3.66 µM
- TGI (SNB-19 CNS): > 100 µM
- GI50 (SNB-75 CNS): 1.21 µM
- TGI (SNB-75 CNS): 7.84 µM
- GI50 (SR leukemia): 2.87 µM
- TGI (SR leukemia): > 100 µM
- GI50 (SW-620 colon): 3.45 µM
- TGI (SW-620 colon): 22.6 µM
- GI50 (T-47D breast): 2.57 µM
- TGI (T-47D breast): 8.72 µM
- GI50 (TK-10 renal): 3.74 µM
- TGI (TK-10 renal): > 100 µM
- GI50 (U251 CNS): 1.77 µM
- TGI (U251 CNS): 4.03 µM
- GI50 (UACC-257 melanoma): 1.99 µM
- TGI (UACC-257 melanoma): 4.42 µM
- GI50 (UACC-62 melanoma): 1.88 µM
- TGI (UACC-62 melanoma): 4.34 µM
- GI50 (UO-31 renal): 1.79 µM
- TGI (UO-31 renal): 7.04 µM

Source: PubChem BioAssay (NCI)
